Test results: patent publication US6211439A, “Herbicide resistance in plants” (MGI Pharma, Inc, priority 1995, dated 2001)
Converted amounts (≈) assume the structure as drawn. Like-named read-outs stand apart in the source and are kept apart here.

Legend:
[1] = test system: acetohydroxyacid synthase (AHAS); assay: AHAS activity assay, extract of maize cell cultures / control tissue; format: biochemical
Method: Plant cell culture material was ground with sand in a cold mortar and pestle in an equal quantity (w/v) of cell disruption media containing 0.05 M potassium phosphate (pH 7.0), 0.1 mM MgSO4, and 0.5 mM dithiothreitol. The preparation was centrifuged at 11,000×g for 20 minutes and the supernatant assayed for AHAS activity. Assays were conducted in 1 ml volumes containing 0.05 M potassium phosphate (pH 8.0), 40 mM pyruvate, 5 mM MgCl2, 0.1 mM thiamine pyrophosphate, 0.2 ml cell extract, and various concentrations of the herbicide of interest. The reaction mixtures were incubated at 30° C. for 75 minutes and the reaction terminated with the addition of 0.1 ml of 50% (v/v) H2 SO4. […] To 0.2 ml of reaction mixture, 0.8 ml of water, 0.5 ml of 0.5% (w/v) creatine, and 0.5 ml of 5% (w/v) naphthol in 10% (w/v) NaOH was added. After mixing, solutions were incubated at room temperature for one hour.

[2] = test system: maize cell suspension cultures; assay: Reversal of herbicide growth inhibition by leucine, valine and isoleucine; format: cell-based; set-up: key to Cell suspension culture growth, (+) 997: settled cell volume, ml per 10 ml of suspension
Method: (§1) Growth inhibition studies were carried out in 125 ml flasks containing 30 ml of test media. 997 was filter sterilized and added to cooling media following autoclaving. Test media were innoculated with cells to give a settled cell volume (15 minutes without centrifugation) of 0.2 ml per 10 ml of suspension. After either six or seven days growth settled cell volumes were again quantitated.
Cells were tested to determine whether the herbicide induced inhibition of growth was the result of the decreased availability of the three branched chain amino acids. Cells were exposed to toxic levels of 997 (1×10^-6 M) in media either supplemented with 1 mM concentrations of leucine, valine, and isoleucine or with no supplementation. Culture growth rates in the absence of amino acid supplementation and in the presence of 1×10^-6 M 997 were reduced to 16% that of herbicide free cultures.
Experiments were conducted to determine the optimum supplementation levels of each of the three amino acids to obtain maximum herbicide protection and for gaining insight into the site of action of the compound.

[3] = test system: Callus tissue from line QJ22; assay: Callus growth inhibition, line QJ22; format: cell-based, maize; settings: line QJ22 vs control tissue; based on herbicide amount giving 50% reduction in growth rate
Method: Callus tissue from line QJ22 was tested also with the compound 567. The numbers represent the fold increase in herbicide concentration that can be tolerated by each of the cell lines as compared to control tissue. The values were calculated based on the amount of herbicide that gave a 50% reduction in growth rate.

[4] = test system: unselected maize callus tissue; assay: Callus culture growth inhibition, unselected tissue; format: cell-based; settings: for IC50: Zea mays, 336 h
Method: (§2) Therefore the effects of 214 were determined on callus growth. Quantities of tissue averaging 90 mg in size were transferred to nutrient agar maintenance media containing concentrations of 214 ranging from 0.003 to 3 mg per liter. Eight tissue pieces were placed on each plate with three plates per herbicide concentration. After 14 days growth, the tissue was weighed again.

[5] = test system: Black Mexican Sweet Corn cell suspension cultures; assay: Growth inhibition of maize cell suspension cultures; format: cell-based
Method: Nonregenerable Black Mexican Sweet Corn cell suspension cultures (i.e., cell cultures which lack the ability to regenerate plants) were obtained from Dr. Burle Gengenbach, Department of Agronomy and Plant Genetics, University of Minnesota, St. Paul, Minn. Stock cell cultures were maintained in liquid Murashige and Skoog (MS) medium (Murashige and Skoog, 1962, Physiol. Plant 15: 473) containing 2 mg of 2,4-dichlorophenoxyaceticacid (2,4-D) per liter, and subcultured weekly by diluting to 1/10 the original volume with fresh medium. Cultures were grown in the dark at 26° C. in 500 ml flasks containing 125 ml media.
as §1
To determine whether the effects of 214 were reversible, Black Mexican Sweet Corn cells growing in liquid suspension culture were exposed to 0.03 mg per liter 214 for various periods of time up to 72 hours. […] The cells were then washed with herbicide-free media and the growth rate evaluated again in the absence of herbicide.

line XA17 tissue = assay: Callus growth inhibition, resistant line XA17; format: cell-based, maize; settings: Zea mays, 336 h, read-out: level giving a 50% growth inhibition
Method: as §2
Initially, the maximum level of 214 in which line XA17 would grow stably was determined. Stock tissue which had been maintained in the presence of 0.1 mg per liter 214 was transferred to media containing 214 levels ranging up to 30 mg per liter. Tissue was maintained for several subculture intervals and the growth rate evaluated.

[6] = test system: AHAS activity of line XA17 tissue; assay: AHAS activity assay, line XA17 tissue; format: biochemical, maize; settings: for IC50: AHAS activity of line XA17 tissue, read-out: concentration inhibiting AHAS activity 50%; for change in herbicide sensitivity of AHAS, line XA17 vs control, on a concentration basis: maize
Method: Assays were conducted as a modification of the procedure of Smith et al. (1979, Molec. Gen. Genet. 169: 299-314). Plant cell culture material was ground with sand in a cold mortar and pestle in an equal quantity (w/v) of cell disruption media containing 0.05 M potassium phosphate (pH 7.0), 0.1 mM MgSO4, and 0.5 mM dithiothreitol. The preparation was centrifuged at 11,000×g for 20 minutes and the supernatant assayed for AHAS activity. Assays were conducted in 1 ml volumes containing 0.05 M potassium phosphate (pH 8.0), 40 mM pyruvate, 5 mM MgCl2, 0.1 mM thiamine pyrophosphate, 0.2 ml cell extract, and various concentrations of the herbicide of interest. The reaction mixtures were incubated at 30° C. for 75 minutes and the reaction terminated with the addition of 0.1 ml of 50% (v/v) H2 SO4. Following further incubation at 40° C. for 20 minutes, the acetoin formed from acetolactate by acidification was quantitated using the method of Westerfield (1945, J. Biol. Chem. 161: 495). To 0.2 ml of reaction mixture, 0.8 ml of water, 0.5 ml of 0.5% (w/v) creatine, and 0.5 ml of 5% (w/v) naphthol in 10% (w/v) NaOH was added. After mixing, solutions were incubated at room temperature for one hour. The development of pink color was quantitated by measuring light absorbance at 530 nm.
Assays were conducted to determine if acetohydroxyacid synthase extracted from line XA17 tissue was altered with respect to herbicide sensitivity. Such a change would signify that an alteration of this enzyme conferred the herbicide resistance. Assays were conducted as described supra.

[7] = AHAS activity of control tissue, read-out: concentration inhibiting AHAS activity 50%
[8] = read-out: level giving a 50% growth inhibition

Q: How did the “effect on AHAS enzyme activity” value ([1]; AHAS activity from maize cell cultures) turn out when `CC(C)C1(C)NC(c2nc3ccccc3cc2C(=O)O)=NC1=O` (stereo not drawn) [compound 214, 2-(5-isopropyl-5-methyl-4-oxo-2-imidazolin-2-yl)3-quinolinecarboxylic acid] was run?
A: inhibited the enzyme activity

Q: What about the IC50 [1, 7] of the same molecule?
A: 1 to 10 µM

Q: And the “effect of media supplementation with leucine, isoleucine, valine on growth inhibition” value ([2]; 1 mM each of leucine, isoleucine, and valine, cell suspension cultures)?
A: reversed the growth inhibitory effects

Q: What about the “Callus Growth Fold Increase in Tolerance” value [3] of the same molecule?
A: 5 fold

Q: What about the Cell death ([4]; 14 day period, 0.003 to 3 mg per liter) of the same molecule?
A: not observed to occur

Q: What about the IC50 ([4]; read-out: concentration giving half maximal inhibition of callus growth rate) of the same molecule?
A: 0.1 to 0.3 µg/mL (≈ 0.321 to 0.964 µM)

Q: And the IC50 [4, 8]?
A: 0.1 to 0.3 µg/mL (≈ 0.321 to 0.964 µM)

Q: And the “Growth of cells in liquid suspension culture” value ([5]; 0.03 mg per liter 214, up to 72 hours)?
A: completely inhibited

Q: And the “growth rate after washing with herbicide-free media” value ([5]; after exposure to 0.03 mg per liter 214 up to 72 hours)?
A: rapidly return to an uninhibited growth rate

Q: What about the IC50 (line XA17 tissue) of the same molecule?
A: 30 µg/mL (≈ 96.4 µM)

Q: What about the IC50 [6] of the same molecule?
A: 3000 to 30000 µM

Q: And the “change in herbicide sensitivity of AHAS, line XA17 vs control, on a concentration basis” value [6]?
A: ≥ 1000 fold

Q: What does the source list for `CC(C)C1(C)NC(c2ncccc2C(=O)O)=NC1=O` (stereo not drawn) [compound 997, 2-(5-isopropyl-5-methyl-4-oxo-2-imidazolin-2-yl)nicotinic acid]?
A: IC50 ([1]; AHAS activity from maize cell cultures, read-out: concentration reducing AHAS enzyme activity 50%): 8 µM; IC50 [1, 7]: 1 to 10 µM; Cell suspension culture growth, (+) 997 ([2]; 0.3 ile): .33; Cell suspension culture growth, (+) 997 ([2]; 0.3 leu): .29; Cell suspension culture growth, (+) 997 ([2]; 0.3 val): .48; Culture growth rate relative to control cultures ([2]; 1×10^-6 M 997, media supplemented with 1 mM leucine, valine, and isoleucine): 91%; effect of media supplementation with leucine, valine, isoleucine on growth inhibition ([2]; 997 ranging in concentration from 1×10^-8 to 1×10^-3 M): could reverse the growth inhibitory effects; Cell suspension culture growth, (+) 997 ([2]; Leucine, Valine, Isoleucine 1,1,1): 1.88; Cell suspension culture growth, (+) 997 ([2]; Leucine, Valine, Isoleucine 1,1,.1): .93; Cell suspension culture growth, (+) 997 ([2]; Leucine, Valine, Isoleucine 1,1,.3): 1.55; Cell suspension culture growth, (+) 997 ([2]; Leucine, Valine, Isoleucine 1,.1,1): 1.28; Cell suspension culture growth, (+) 997 ([2]; Leucine, Valine, Isoleucine 1,.1,.1): 1.03; Cell suspension culture growth, (+) 997 ([2]; Leucine, Valine, Isoleucine 1,.1,.3): 1.38; Cell suspension culture growth, (+) 997 ([2]; Leucine, Valine, Isoleucine 1,.3,1): 1.45; Cell suspension culture growth, (+) 997 ([2]; Leucine, Valine, Isoleucine 1,.3,.1): .98; Cell suspension culture growth, (+) 997 ([2]; Leucine, Valine, Isoleucine 1,.3,.3): 1.40; Cell suspension culture growth, (+) 997 ([2]; Leucine, Valine, Isoleucine .1,1,1): .60; Cell suspension culture growth, (+) 997 ([2]; Leucine, Valine, Isoleucine .1,1,.1): .83; Cell suspension culture growth, (+) 997 ([2]; Leucine, Valine, Isoleucine .1,1,.3): .68; Cell suspension culture growth, (+) 997 ([2]; Leucine, Valine, Isoleucine .1,.1,1): .58; Cell suspension culture growth, (+) 997 ([2]; Leucine, Valine, Isoleucine .1,.1,.1): .70; Cell suspension culture growth, (+) 997 ([2]; Leucine, Valine, Isoleucine .1,.1,.3): .68; Cell suspension culture growth, (+) 997 ([2]; Leucine, Valine, Isoleucine .1,.3,1): .80; Cell suspension culture growth, (+) 997 ([2]; Leucine, Valine, Isoleucine .1,.3,.1): .75; Cell suspension culture growth, (+) 997 ([2]; Leucine, Valine, Isoleucine .1,.3,.3): .90; Cell suspension culture growth, (+) 997 ([2]; Leucine, Valine, Isoleucine .3,1,1): 1.30; Cell suspension culture growth, (+) 997 ([2]; Leucine, Valine, Isoleucine .3,1,.1): 1.08; Cell suspension culture growth, (+) 997 ([2]; Leucine, Valine, Isoleucine .3,1,.3): 1.30; Cell suspension culture growth, (+) 997 ([2]; Leucine, Valine, Isoleucine .3,.1,1): .80; Cell suspension culture growth, (+) 997 ([2]; Leucine, Valine, Isoleucine .3,.1,.1): .70; Cell suspension culture growth, (+) 997 ([2]; Leucine, Valine, Isoleucine .3,.1,.3): .95; Cell suspension culture growth, (+) 997 ([2]; Leucine, Valine, Isoleucine .3,.3,1): 1.08; Cell suspension culture growth, (+) 997 ([2]; Leucine, Valine, Isoleucine .3,.3,.1): .95; Cell suspension culture growth, (+) 997 ([2]; Leucine, Valine, Isoleucine .3,.3,.3): 1.18; Cell suspension culture growth, (+) 997 ([2]; No Supplementation (4 replicates)): 0.30; activity at 1 µM ([2]; Zea mays, 1×10^-6 M 997, absence of amino acid supplementation, read-out: Culture growth rate relative to herbicide free cultures): 16%; Callus Growth Fold Increase in Tolerance [3]: 30-50 fold; IC50 [4, 8]: 0.1 to 0.3 µg/mL (≈ 0.383 to 1.15 µM); herbicide concentration giving 50% growth inhibition ([5]; suspension cultures, concentration in the media, settled cell volume after six or seven days): 1 to 3×10^-8 M; IC50 (line XA17 tissue): > 30 µg/mL; IC50 [6]: 3000 to 30000 µM; change in herbicide sensitivity of AHAS, line XA17 vs control, on a concentration basis [6]: ≥ 1000 fold
